Data as given in ChEMBL document CHEMBL1135179, “Synthesis of C-8 alkylamino substituted pyrrolo[2,1-c][1,4]benzodiazepines as potential anti-cancer agents” (2002).

Tests used:
Format in all cases: functional
[1] = tested on: Panel prostate (Carcinoma cell lines); assay: Compound was tested for 50% lethality in Prostate cancer cell lines; details: Homo sapiens, read-out: Log LC50 (converted)
leukaemia cell line = assay: Compound was tested for 50% lethality in leukemia cancer cell lines; details: Homo sapiens, read-out: Log LC50 (the source's name) (converted)
[2] = tested on: Panel breast (Carcinoma cell lines); assay: Compound was tested for 50% lethality in Breast cancer cell lines; details: Homo sapiens, read-out: Log LC50 (the source's name) (converted)
[3] = tested on: Panel colon (Carcinoma cell lines); assay: Compound was tested for 50% lethality in Colon cancer cell lines; details: Homo sapiens, read-out: Log LC50 (the source's name) (converted)
NSCLC = assay: Compound was tested for 50% lethality in Non-small-cell lung cancer cell lines; details: Homo sapiens, read-out: Log LC50 (the source's name) (converted)
[4] = tested on: Panel renal (Carcinoma cell lines); assay: Compound was tested for 50% lethality in Renal cancer cell lines; details: Homo sapiens, read-out: Log LC50 (the source's name) (converted)
[5] = tested on: Panel melanoma (Carcinoma cell lines); assay: Compound was tested for 50% lethality in Melanoma cancer cell lines; details: Homo sapiens, read-out: Log LC50 (the source's name) (converted)
[6] = tested on: Panel ovarian (Carcinoma cell lines); assay: Compound was tested for 50% lethality in Ovarian cancer cell lines; details: Homo sapiens, read-out: Log LC50 (the source's name) (converted)
[7] = tested on: Panel CNS (Carcinoma cell lines); assay: Compound was tested for 50% lethality in CNS cancer cell lines; details: Homo sapiens, read-out: Log LC50 (the source's name) (converted)

Structure (SMILES)	CC50 [1] [µM]	CC50 (leukaemia cell line) [µM]	CC50 [2] [µM]	CC50 [3] [µM]	CC50 (NSCLC) [µM]	CC50 [4] [µM]	CC50 [5] [µM]	CC50 [6] [µM]	CC50 [7] [µM]
COc1cc2c(cc1OCCCN1CCN(C)CC1)N=C[C@@H]1CCCN1C2=O	> 100	52.5	64.6	55	67.6	56.2	30.9	61.7	64.6
COc1cc2c(cc1OCCCN1CCOCC1)N=C[C@@H]1CCCN1C2=O	> 100	> 100	97.7	66.1	95.5	97.7	87.1	> 100	95.5
CCN(CC)CCCOc1cc2c(cc1OC)C(=O)N1CCC[C@H]1C=N2	> 100	> 100	> 100	87.1	> 100	> 100	93.3	> 100	> 100
